# Values of other authors as cited in US8524198B2, “Xylitol dental maintenance system” (priority 2003, dated 2013).
# How the values were obtained:
# [1] = 976 children aged 6-12 years, 2 years; for 2-year DMFS increment: partial substitution of sucrose by xylitol (X group) vs systemic fluoride (F group)
# [2] = 3-year field study; partial substitution of sucrose by xylitol (X group)
# oral microorganisms = details: pure cultures of oral microorganisms in vitro
# dental plaque = dental plaque in vivo
smiles,measurement,setting,value
F [fluoride],ratio (RS) between caries incidence and the tooth surface population at risk,[1],5.5
same,2-year DMFS increment,[1],4.8
OC[C@@H](O)[C@H](O)[C@@H](O)CO [xylitol],ratio (RS) between caries incidence and the tooth surface population at risk,[1],4.5
same,2-year DMFS increment,[1],3.8
same,"oral hygiene conditions, final vs base-line",[2],definite improvement
same,metabolized into acids,oral microorganisms,not metabolized into acids
same,metabolized into acids,dental plaque,not metabolized into acids
